The values below come from patent US20230159511A1, “TETRAHYDROISOQUINOLINE COMPOUNDS AS NRF2 ACTIVATORS” (C4X Discovery Limited, priority 2020, published 2023).

Assay [1] deals with NRF2 mediated gene NAD(P)H:quinone acceptor oxidoreductase 1 (NQO1) in BEAS-2B cells. As to the kind of experiment: Beas2B NQO1 mRNA Cell Based Assay. Further details: species or system human. Put shortly: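 BEAS-2B cells treated 24 h with compound; NQO1 mRNA measured by one-step TaqMan RT-PCR on crude lysates, normalised to beta actin by ΔΔCT. Fold increase over 0.1% DMSO vehicle; EC50 from four-parameter logistic fit.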

Assay [2] concerns the target T1, human KEAP1 (N-term, residues 321-609) (Homo sapiens, UniProt Q14145).
T1 construct: human KEAP1 (N-term, residues 321-609)
As to the kind of experiment: KEAP1 Kelch Fluorescence Polarization (FP) Assay. It is filed as binding. Particulars: inhibition of Kelch domain-NRF2 interaction; 2 nM FITC-labelled NRF2 peptide, 25 nM KEAP1, 1 h room temperature; compounds below 10 nM cannot be differentiated. Summed up:
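FP competition: 2 nM FITC-NRF2 peptide (LDEETGEFL) with 25 nM KEAP1 Kelch domain, pH 8.0 Tris buffer, 0.5% DMSO, 1 h at room temperature; 12-point 1:3 dilutions from 10 μM.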

Setting [3] is: Homo sapiens, BEAS-2B cells, compound for 24 h, increase in NQO1 mRNA compared to vehicle (0.1% DMSO) control, read-out: EC50.

Read-outs that look alike come from different tables or passages of the source. Bounds are passed on as bounds.

T1 sequence (Q14145 321-609): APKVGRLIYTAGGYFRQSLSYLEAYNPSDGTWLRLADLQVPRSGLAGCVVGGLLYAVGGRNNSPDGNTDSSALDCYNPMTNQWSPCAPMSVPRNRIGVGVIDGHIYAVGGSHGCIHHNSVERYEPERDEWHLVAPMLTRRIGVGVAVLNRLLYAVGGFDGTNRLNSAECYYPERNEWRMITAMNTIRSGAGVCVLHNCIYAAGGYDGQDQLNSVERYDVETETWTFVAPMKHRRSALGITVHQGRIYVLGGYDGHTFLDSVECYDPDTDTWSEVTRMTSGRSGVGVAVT

For the compound `CNC(=O)[C@@]1(C)CCCC[C@H]1C(=O)N1CCc2c(Cl)ccc(OCc3noc4ccccc34)c2[C@H]1CN1CCCC1=O` [Example 83, (1S,2R)-2-((S)-8-(benzo[d]isoxazol-3-ylmethoxy)-5-chloro-1-((2-oxopyrrolidin-1-yl)methyl)-1,2,3,4-tetrahydroisoquinoline-2-carbonyl)-N,1-dimethylcyclohexane-1-carboxamide], in assay [1] (setting [3]), the concentration for a half-maximal effect (EC50) came out at 0.473 µM. In assay [2], this compound yielded a half-inhibitory concentration (IC50) of 0.012 µM.
As to `Cn1nnc(COc2ccc(Cl)c3c2[C@@H](CN2CCCC2=O)N(C(=O)[C@@H]2CCCCN2C(=O)C(F)F)CC3)c1C(F)F` [Example 84], the half-maximal effective concentration (EC50) in assay [1] (Homo sapiens, BEAS-2B, 24 h) stood at 1.53 µM. The compound further gave an IC50 in assay [2] of 0.161 µM.
On to `CNC(=O)[C@@]1(C)CCC[C@H]1C(=O)N1CCc2c(Cl)ccc(OCc3nnn(C)c3C(F)F)c2[C@H]1CN1CCCC1=O` [Example 85, (1S,2R)-2-((S)-5-chloro-8-((5-(difluoromethyl)-1-methyl-1H-1,2,3-triazol-4-yl)methoxy)-1-((2-oxopyrrolidin-1-yl)methyl)-1,2,3,4-tetrahydroisoquinoline-2-carbonyl)-N,1-dimethylcyclopentane-1-carboxamide], for which the EC50 in assay [1] (setting [3]) was determined as 0.33 µM. The compound further yielded a concentration for half-maximal inhibition (IC50) in assay [2] of 0.0078 µM.
Regarding `CNC(=O)[C@H]1CCCC[C@H]1C(=O)N1CCc2c(Cl)ccc(OCc3nnc(C)n3C)c2[C@H]1CN1CCCC1=O` [Example 86, (1S,2R)-2-((S)-5-chloro-8-((4,5-dimethyl-4H-1,2,4-triazol-3-yl)methoxy)-1-((2-oxopyrrolidin-1-yl)methyl)-1,2,3,4-tetrahydroisoquinoline-2-carbonyl)-N-methylcyclohexane-1-carboxamide], in assay [1] (setting [3]), the 50% effective concentration (EC50) was found to be 2.42 µM. The compound further registered an IC50 in assay [2] of 0.014 µM.
For `CNC(=O)N1CCOC[C@H]1C(=O)N1CCc2c(Cl)ccc(OCc3nnn(C)c3C(F)F)c2[C@H]1CN1CCCC1=O` [Example 87, (S)-3-((S)-5-chloro-8-((5-(difluoromethyl)-1-methyl-1H-1,2,3-triazol-4-yl)methoxy)-1-((2-oxopyrrolidin-1-yl)methyl)-1,2,3,4-tetrahydroisoquinoline-2-carbonyl)-N-methylmorpholine-4-carboxamide] the same measures were 4.13 µM and 0.039 µM.
Regarding `CNC(=O)N1CC2(CC2)C[C@H]1C(=O)N1CCc2c(Cl)ccc(OCc3nnn(C)c3C(F)F)c2[C@H]1CN1CCCC1=O` [Example 88, (S)-6-((S)-5-chloro-8-((5-(difluoromethyl)-1-methyl-1 H-1,2,3-triazol-4-yl)methoxy)-1-((2-oxopyrrolidin-1-yl)methyl)-1,2,3,4-tetrahydroisoquinoline-2-carbonyl)-N-methyl-5-azaspiro[2.41]heptane-5-carboxamide], the midpoint of the response in assay [1] (Homo sapiens, BEAS-2B, 24 h), the EC50, lay at 7.56 µM. Also, the 50% inhibitory concentration (IC50) in assay [2] is 0.067 µM.
As to `CNC(=O)N1CCC[C@H]1C(=O)N1CCc2c(Cl)ccc(OCc3cn(C)nn3)c2[C@H]1CN1CCCC1=O` [Example 89, (S)-2-((S)-5-chloro-8-((1-methyl-1H-1,2,3-triazol-4-yl)methoxy)-1-((2-oxopyrrolidin-1-yl)methyl)-1,2,3,4-tetrahydroisoquinoline-2-carbonyl)-N-methylpyrrolidine-1-carboxamide], the EC50 in assay [1] (setting [3]) is 8.72 µM. The compound also displayed an IC50 in assay [2] of 0.019 µM.
As to `CNC(=O)[C@@]1(C)CCCC[C@H]1C(=O)N1CCc2c(Cl)ccc(OCc3nnn(C)c3C)c2[C@H]1CN1CCCC1=O` [Example 90, (1S,2R)-2-((S)-5-chloro-8-((1,5-dimethyl-1H-1,2,3-triazol-4-yl)methoxy)-1-((2-oxopyrrolidin-1-yl)methyl)-1,2,3,4-tetrahydroisoquinoline-2-carbonyl)-N,1-dimethylcyclohexane-1-carboxamide], in assay [1] (setting [3]), the EC50 amounted to 0.094 µM. This compound displayed an IC50 in assay [2] of 0.0079 µM.
Taken in the same sequence, the figures for `CNC(=O)[C@@]1(C)CCCC[C@H]1C(=O)N1CCc2c(Cl)ccc(OCc3nnn(C)c3C(F)(F)F)c2[C@H]1CN1CCCC1=O` [Example 91, (1S,2R)-2-((S)-5-chloro-8-((1-methyl-5-(trifluoromethyl)-1H-1,2,3-triazol-4-yl)methoxy)-1-((2-oxopyrrolidin-1-yl)methyl)-1,2,3,4-tetrahydroisoquinoline-2-carbonyl)-N,1-dimethylcyclohexane-1-carboxamide] were 0.607 µM and 0.0098 µM.
As for `CNC(=O)N1CCCC[C@H]1C(=O)N1CCc2c(Cl)ccc(OCc3cn(C)nn3)c2[C@H]1CN1CCCC1=O` [Example 92, (S)-2-((S)-5-chloro-8-((1-methyl-1H-1,2,3-triazol-4-yl)methoxy)-1-((2-oxopyrrolidin-1-yl)methyl)-1,2,3,4-tetrahydroisoquinoline-2-carbonyl)-N-methylpiperidine-1-carboxamide], the EC50 in assay [1] (setting [3]) amounted to 0.565 µM. In assay [2], this compound returned a half-inhibitory concentration (IC50) of 0.012 µM.
For the compound `CNC(=O)[C@@]1(C)CCCC[C@H]1C(=O)N1CCc2c(Cl)ccc(OCc3cn(C)nn3)c2[C@H]1CN1CCCC1=O` [Example 93, (1S,2R)-2-((S)-5-chloro-8-((1-methyl-1H-1,2,3-triazol-4-yl)methoxy)-1-((2-oxopyrrolidin-1-yl)methyl)-1,2,3,4-tetrahydroisoquinoline-2-carbonyl)-N,1-dimethylcyclohexane-1-carboxamide], the EC50 in assay [1] (setting [3]) is over 10 µM. The 50% inhibitory concentration (IC50) in assay [2] came to 0.851 µM.
For `CNC(=O)[C@@]1(C)CCC[C@H]1C(=O)N1CCc2c(Cl)ccc(OCc3nnn(C)c3C(F)F)c2[C@H]1CN1CC2(CC2)CC1=O` [Example 94, (1S,2R)-2-((S)-5-chloro-8-((5-(difluoromethyl)-1-methyl-1H-1,2,3-triazol-4-yl)methoxy)-1-((6-oxo-5-azaspiro[2.4]heptan-5-yl)methyl)-1,2,3,4-tetrahydroisoquinoline-2-carbonyl)-N,1-dimethylcyclopentane-1-carboxamide] the same measures were 0.148 µM and 0.013 µM.
For the compound `CNC(=O)[C@@]1(C)CCCC[C@H]1C(=O)N1CCc2c(Cl)ccc(OCc3nnn(C)c3C(F)(F)F)c2[C@H]1CN1CC2(CC2)CC1=O` [Example 97, (1S,2R)-2-((S)-5-chloro-8-((1-methyl-5-(trifluoromethyl)-1H-1,2,3-triazol-4-yl)methoxy)-1-((6-oxo-5-azaspiro[2.4]heptan-5-yl)methyl)-1,2,3,4-tetrahydroisoquinoline-2-carbonyl)-N,1-dimethylcyclohexane-1-carboxamide], the EC50 in assay [1] (setting [3]) was found to be 0.114 µM. The compound also showed an IC50 in assay [2] of 0.0089 µM.
As to `CNC(=O)[C@]1(C)CCCC[C@@H]1C(=O)N1CCc2c(Cl)ccc(OCc3nnn(C)c3C(F)F)c2[C@@H]1CN1CC2(CC2)CC1=O` [Example 98, (1R,2S)-2-((R)-5-chloro-8-((5-(difluoromethyl)-1-methyl-1 H-1,2,3-triazol-4-yl)methoxy)-1-((6-oxo-5-azaspiro[2.4]heptan-5-yl)methyl)-1,2,3,4-tetrahydroisopuinoline-2-carbonyl)-N,1-dimethylcyclohexane-1-carboxamide], in assay [1] (BEAS-2B cells, compound for 24 h, increase in NQO1 mRNA compared to vehicle (0.1% DMSO) control, read-out: EC50), the EC50 was 0.041 µM. Moreover, the half-inhibitory concentration (IC50) in assay [2] was determined as 0.006 µM.
`CNC(=O)[C@@]1(C)CCCC[C@H]1C(=O)N1CCc2c(Cl)ccc(OCc3nnn(C)c3C3CC3)c2[C@H]1CN1CCCC1=O` [Example 99, (1S,2R)-2-((S)-5-chloro-8-((5-cyclopropyl-1-methyl-1H-1,2,3-triazol-4-yl)methoxy)-1-((2-oxopyrrolidin-1-yl)methyl)-1,2,3,4-tetrahydroisoquinoline-2-carbonyl)-N,1-dimethylcyclohexane-1-carboxamide]: in assay [1] (setting [3]), the half-maximal effective concentration (EC50) is 0.109 µM. In addition, the IC50 in assay [2] is 0.0074 µM.
For `Cn1nnc(COc2ccc(Cl)c3c2[C@@H](CN2CC4(CC4)CC2=O)N(C(=O)[C@@H]2CCCC[C@]2(C)C(N)=O)CC3)c1C(F)F` [Example 100, (1S,2R)-2-((S)-5-chloro-8-((5-(difluoromethyl)-1-methyl-1H-1,2,3-triazol-4-yl)methoxy)-1-((6-oxo-5-azaspiro[2.4]heptan-5-yl)methyl)-1,2,3,4-tetrahydroisoquinoline-2-carbonyl)-1-methylcyclohexane-1-carboxamide] the same measures were 0.026 µM and 0.0064 µM.
As for `CNC(=O)[C@@]1(C)CCCC[C@H]1C(=O)N1CCc2c(Cl)ccc(OCc3nnn(C)c3C)c2[C@H]1CN1CC2(CC2)CC1=O` [Example 101, (1S,2R)-2-((S)-5-chloro-8-((1,5-dimethyl-1H-1,2,3-triazol-4-yl)methoxy)-1-((6-oxo-5-azaspiro[2.4]heptan-5-yl)methyl)-1,2,3,4-tetrahydroisoquinoline-2-carbonyl)-N,1-dimethylcyclohexane-1-carboxamide], in assay [1] (setting [3]), the EC50 is 0.018 µM. This compound gave a half-inhibitory concentration (IC50) in assay [2] of 0.0061 µM.
For the compound `CNC(=O)[C@@]1(C)CCCC[C@H]1C(=O)N1CCc2c(Cl)ccc(OCc3cn(C)nn3)c2[C@H]1CN1CC2(CC2)CC1=O` [Example 102, (1S,2R)-2-((S)-5-chloro-8-((1-methyl-1H-1,2,3-triazol-4-yl)methoxy)-1-((6-oxo-5-azaspiro[2.4]heptan-5-yl)methyl)-1,2,3,4-tetrahydroisoquinoline-2-carbonyl)-N,1-dimethylcyclohexane-1-carboxamide], the 50% effective concentration (EC50) in assay [1] (setting [3]) is 0.059 µM. Also, in assay [2], half-maximal inhibition (IC50) required 0.012 µM.
